# According to patent US12678453B2, “Aerosolized formulations of HIV protease inhibitors for the treatment of airway reflux” (The Medical College of Wisconsin, Inc., priority 2020, dated 2026):
# “Also recorded” adds a separate entry of the source.
# Test system: mouse model of laryngopharyngeal reflux (LPR)
# Assay: in vivo mouse model of LPR (laryngeal wounding and pepsin instillation, H&E histology)
# Settings: for laryngeal histology (H&E) / pepsin-mediated laryngeal injury: pepsin pH7 group; for laryngeal histology (H&E): solvent (saline/PBS pH7) group
# Description: An in vivo mouse model of direct application of pepsin, to mimic laryngeal exposure during LPR, and treatment with select HIV protease inhibitors by either gavage (oral systemic delivery) or aerosolized delivery (inhaled local delivery) was used. […] Each group contained 3 mice. Six-week-old female Jackson A/J mice (Jackson Laboratory, Bar Harbor, ME), weighed one day after arrival, then weekly, on Mondays thereafter.
# Avertin was the preferred anesthetic for the brief application time needed as it has a rapid induction, produces a short surgical anesthesia, and has a rapid recovery. […] For this experiment, isoflurane inhalation was used. The isoflurane, self-scavenging machine, was operated at 3% isoflurane with 2.5 liters of air per minute (LPM). The induction chamber was charged for 3-5 minutes prior to the mice being anesthetized. Mice were placed in the induction chamber for 3-5 minutes prior to any wounding or administrations. Anesthesia records were kept according to IACUC policy.
# Animals secured by a copper wire attached to the board from which the mice were suspended by their upper teeth. This caused the lower jaw to fall open naturally, exposing the larynx and permitting visualization with a Zeiss microscope at 6× magnification. […] Under direct visualization, the subglottis, glottis, and supraglottis regions were superficially scratched interiorly from distal to proximal as the needle was pulled out gently, making a mild abrasion. This procedure was performed twice, with one week between woundings.
# To examine the effect pepsin at acid and nonacid pH, animals were treated for 2 weeks with laryngeal instillation of pepsin (20 μL at 0.3 mg/ml, pH 7.0 or pH 4.0) at 24, 48, and 72 h post wounding procedure. During weeks 3 and 4, animals were treated with laryngeal instillation for 3 days per week. Mice were sacrificed and samples collected on Friday of the fourth week.
# The twelve mice in the aerosol groups were condition in the nose-only exposure chamber (Intox) on three separate days by exposure to dry air for 10 min. Beginning the Monday (day 1) of the next week, aerosols and gavages were performed on the mice Monday through Friday (5 exposures). The aerosols and gavages continued Monday-Friday for three more weeks, with the final week consisting of 4 total exposure days, Monday-Thursday, (19 total) with the mice sacrificed and tissues harvested on Friday. Each mouse received two woundings and 12 solvent or pepsin administrations. Wounding and intratracheal administrations were concurrent with the aerosol and gavage treatments. The first wounding was performed on day 2, followed by solvent or pepsin administrations on days 3, 4, and 5. The second wounding was performed on day 8, followed by solvent or pepsin administrations on days 9, 10, and 11. In weeks 3 and 4, mice received solvent or pepsin administrations on days 16, 17, and 18 and days 23, 24, and 25. Day 26 was sacrifice and tissue harvest.
# A 10 mL suspension of drug in ethanol was placed in the baffle, such that the concentration would remain constant at the equilibrium solubility. Droplets of ethanol containing dissolve drug were generated by an ultrasonic atomizer (nominal frequency 1.7 MHz) entrained by air at a flow rate of 0.5 LPM with a custom-built glass baffle (University of Minnesota, Department of Chemistry Glass Shop). The aerosol cloud was then passed through a cylindrical drying column containing an annular ring of charcoal. The ethanol is removed and the emanating dry aerosol particles of pure drug were then directed into the exposure chamber.
# The mass deposited on the filters in a fixed collection time was measured gravimetrically, and with the collection time, allowed calculation of the total output rate (mg/min). The aerosol concentration (mass/volume of air) was calculated by dividing the total output rate by the air flow rate (0.5 LPM).
smiles,measurement,setting,value
"CC(C)CN(C[C@@H](O)[C@H](Cc1ccccc1)NC(=O)O[C@H]1CO[C@H]2OCC[C@H]21)S(=O)(=O)c1ccc(N)cc1 [darunavir, [(3a S,4R,6aR)-2,3,3a,4,5,6a-hexahydrofuro[2,3-b]furan-4-yl] N-[(2S,3R)-4-[(4-aminophenyl)sulfonyl-(2-methylpropyl)amino]-3-hydroxy-1-phenylbutan-2-yl]carbamate]","pepsin-mediated laryngeal injury (multi-layered, reactive epithelia and cell apoptosis)","aerosol, 12 mg/kg/d",effective in preventing pepsin mediated injury
same,laryngeal histology (H&E) / pepsin-mediated laryngeal injury,aerosol,normal histology; also recorded: mild protection against pepsin-mediated damage
same,laryngeal histology (H&E),aerosol,normal histology
same,laryngeal histology (H&E) / pepsin-mediated laryngeal injury,gavage,appeared similar
same,laryngeal histology (H&E) / pepsin-mediated laryngeal injury,"gavage, listed as Darunavir",mild reactive epithelia in the pepsin group but less than pepsin control
same,laryngeal histology (H&E),gavage,"mild reactive epithelia in the solvent group, but less than pepsin control; also recorded: mild reactivity (rare intraepithelial lymphocytes)"
